Results reported in US20240285672A1, “BETA-GLUCAN FOR PREVENTING AND/OR TREATING FIBROSIS AND RELATED DISEASES” (GN Corporation Co Ltd, priority 2021, published 2024).

Legend:
Format in all cases: in vivo, C57BL/6J mice
[1] = tested on: STAM mouse model of non-alcoholic steatohepatitis; test: HE staining, NAFLD Activity Score (F18S study); conditions: STAM mice liver
Description: For HE staining, sections were cut from paraffin blocks of liver tissue prefixed in Bouin's solution and stained with Lillie-Mayer's Hematoxylin (Muto Pure Chemicals Co., Ltd., Japan) and eosin solution (Wako Pure Chemical Industries). The NAFLD Activity Score (NAS) was calculated according to the criteria of Kleiner (Kleiner D E. Et al., Hepatology, 2005; 41:1313), as shown in Table 2. For NAS scoring, bright field images of HE-stained sections were captured using a digital camera (DFC295; Leica, Germany) at 50- and 200-fold magnifications. Steatosis score in 1 section/mouse (representative 1 field at 50-fold magnification), inflammation score in 1 section/mouse (representative 1 field around the central vein at 200-fold magnification) and ballooning score in 1 section/mouse (representative 1 field around the central vein at 200-fold magnification) were estimated.

gut microbiota = test: Gut microbiome analysis of fecal samples, 16S rRNA sequencing (STAM mice)
Excerpt: Frequency: Fecal samples were collected at the 6 weeks of age (before administration) and 9 weeks of age (before sacrifice).
Procedure: At 6 weeks of age, fecal samples were collected from each mouse by clean catch method. Handle animals with clean gloves sterilized with 70% ethanol. A sterile petri dish was placed on the bench. Gently massage the abdomen, position the bottom of mouse over a fresh petri dish, and collect 1-2 fecal pellets. At sacrifice, fecal samples were aseptically collected from cecum. The tubes with feces were placed on ice immediately. These tubes were snap frozen in liquid nitrogen and stored at −80° C. for shipping.
In this analysis, the 16S rRNA sequence data acquired by the next-generation sequencer from the fecal […] was used to perform community analysis using the QIIME2 program for microbial community analysis. The raw read data in FASTQ format output from the next-generation sequencer was trimmed to remove adapter sequences and low QV regions that may be included in the data. Cutadapt was used to remove adapter sequences from DNA sequencing reads. Trimmomatic was used as read trimming tool for Illumina NGS data. The adapter sequence was trimmed using the adapter trimming program “cutadapt” if the Trimming of the region at the end of the read sequence overlapped the corresponding sequence by at least one base (mismatch tolerance: 20%). […]

[2] = Plasma ALT in STAM mice (F18S study); conditions: at 9 weeks of age
Description: At study termination, non-fasting blood was collected through direct cardiac puncture using pre-cooled syringes. The collected blood was transferred in pre-cooled polypropylene tubes with anticoagulant (Novo-Heparin) and stored on ice until centrifugation. The blood samples were centrifuged at 1,000×g for 15 minutes at 4° C. The supernatant was collected and stored at −80° C. for biochemistry and evaluation.
Plasma ALT levels were measured by FUJI DRI-CHEM 7000 (Fujifilm Corporation).

[3] = tested on: STAM mouse model of non-alcoholic steatohepatitis; test: Sirius red staining of liver sections, fibrosis area (F18S study); conditions: STAM mice liver, x200
Description: To visualize collagen deposition, Bouin's fixed liver sections were stained using picro-Sirius red solution (Waldeck, Germany). Briefly, sections were deparaffinized and hydrophilized with xylene, 100-70% alcohol series and RO water, and then treated with 0.03% picro-Sirius red solution (Cat No.: 1A-280) for 60 minutes. After washing with 0.5% acetic acid solution and RO water, stained sections were dehydrated and cleared with 70-100% alcohol series and xylene, then sealed with Entellan® new (Merck, Germany) and used for observation.
For quantitative analysis of the fibrosis area and inflammation area, bright field images of Sirius red-stained and F4/80-immunostained sections were captured around the central vein using a digital camera (DFC295; Leica, Germany) at 200-fold magnification, and the positive areas in 5 fields/section were measured using ImageJ software (National Institute of Health, USA).

CCCc1nc2c(C)cc(-c3nc4ccccc4n3C)cc2n1Cc1ccc(-c2ccccc2C(=O)O)cc1 [Telmisartan]
NAS average score ([1]; HE staining): 2.625 | NAS compared with the other groups ([1]; HE staining): significantly lesser score | Ballooning and steatosis score ([1]; compared with the vehicle): decreased most | decrease in firmicutes and increase in Bacteroides (gut microbiota; post-intervention, compared to all other groups): highest | Proteobacteria (gut microbiota; pre vs post-intervention): increased | Plasma ALT levels (Mean) [2]: 36 U/L | Sirius red average positive stained area [3]: 0.59
